Converted amounts (≈) assume the structure as drawn.

The nature of data set [1]: Desolvation screening (vacuum oven). The format is physicochemical. The conditions noted are these: heated to about 110~120° C. in a vacuum oven. As for the experimental part:
Another method of generating anhydrous forms is desolvation. In this study, the solvates and hydrates of Compound I were heated to about 110˜120° C. in a vacuum oven to desolvate.

Data set [2] can be described thus: Stable form competition study in ACN. Conditions: ACN mother liquor. The format is physicochemical. As to the method:
To further verify the stability of Form II, competitive crystallization was conducted by adding Forms I through V into a high concentration solution of amorphous Compound I in ACN. […] The mother liquor obtained, which was saturated in terms of Form II, was used in another test in which other forms (Forms I, III, IV and V) were added.

The conditions of data set [3]: dried at 70° C.
A short description of data set [4]: Follow-up stable form screening (Form II stirred in solvents at about 22° C.). Conditions: about 22° C., Form II start. The format is physicochemical. As for the experimental part: In the follow-up stable form screening experiments, the starting materials were Form II. The solids were stirring in the solvents list below at about 22° C. in 2 ml vials.
Data set [5] is described as follows: First stable form screening (amorphous Compound I in 19 solvents/mixtures at ambient conditions). The format is physicochemical. Conditions: for 2-Week solids / 24 h solids / solubility: amorphous start, ambient; for solubility: thermodynamic from solid. As to the method: The first stable form screening was conducted using 19 solvents/mixtures at ambient conditions. The starting material was amorphous. Anti-solvents, either water or heptane, were used to precipitate the solids.
Form I is a hydrate form obtained from ACN/water 50:50 mixture. Form II is an anhydrous form obtained from ACN. […] Solids in water and heptane were amorphous. Other samples remained as solutions.
It appears to be a solvated form. […] Solids in water and heptane remained amorphous. Other samples remained as solution.

[6] abbreviates: 2 Me-THF, init. conc. 77.4 mg/mL.
Where [7] appears, read: Acetone, init. conc. 79.6 mg/mL.
[8] abbreviates: Heptane, init. conc. 12.7 mg/mL.
The mark [9] stands for this setting: Toluene, init. conc. 16.2 mg/mL.

As for `CC1=CC[C@H](C(=O)N(c2cc(C#CC(C)(C)C)sc2C(=O)O)C2CCC(O)(CO[C@H]3CCOC3)CC2)CC1.O` (relative stereo) [Form VIII, 5-(3,3-dimethylbutyn-1-yl)-3-[(cis-4-hydroxy-4-{[(3S)-tetrahydrofuran-3-yloxy]methyl}cyclohexyl){[(1R)-4-methylcyclohex-3-en-1-yl]carbonyl}amino]thiophene-2-carboxylic acid monohydrate], in data set [1], the “Final Form after desolvation” value is recorded as “VIII”.
Consider `CC1=CC[C@H](C(=O)N(c2cc(C#CC(C)(C)C)sc2C(=O)O)[C@H]2CC[C@](O)(CO[C@H]3CCOC3)CC2)CC1.O` (relative stereo) [Form I, 5-(3,3-dimethylbutyn-1-yl)-3-[(cis-4-hydroxy-4-{[(3S)-tetrahydrofuran-3-yloxy]methyl}cyclohexyl){[(1R)-4-methylcyclohex-3-en-1-yl]carbonyl}amino]thiophene-2-carboxylic acid hydrate], for which the “Behaviour of solids added to mother liquor saturated in Form II” value in data set [2] was “dissolved quickly”. For the same compound, the “Final Form after desolvation” value in data set [1] was “Amorphous”. Further, the “Solid state after drying (XRPD)” value in data set [3] is “partially became amorphous”. Besides, in data set [4] (Water, value for Form I), the solubility – broadly, how much of the substance goes into solution per volume – was found to be 0.25 mg/mL.
`CC1=CC[C@H](C(=O)N(c2cc(C#CC(C)(C)C)sc2C(=O)O)[C@H]2CC[C@](O)(CO[C@H]3CCOC3)CC2)CC1.CCC(C)=O` (relative stereo) [Form X, 5-(3,3-dimethylbutyn-1-yl)-3-[(cis-4-hydroxy-4-{[(3S)-tetrahydrofuran-3-yloxy]methyl}cyclohexyl){[(1R)-4-methylcyclohex-3-en-1-yl]carbonyl}amino]thiophene-2-carboxylic acid methyl ethyl ketone]: the solubility in data set [4] (MEK, value for Form X) is on record as 127 mg/mL.
As for `CC(C)O.CC1=CC[C@H](C(=O)N(c2cc(C#CC(C)(C)C)sc2C(=O)O)C2CCC(O)(CO[C@H]3CCOC3)CC2)CC1` (relative stereo) [Form VII, 5-(3,3-dimethylbutyn-1-yl)-3-[(cis-4-hydroxy-4-{[(3S)-tetrahydrofuran-3-yloxy]methyl}cyclohexyl){[(1R)-4-methylcyclohex-3-en-1-yl]carbonyl}amino]thiophene-2-carboxylic acid isopropyl alcohol solvate], the “Final Form after desolvation” value in data set [1] is given as “Amorphous”. The same compound showed a solubility in data set [4] (IPA, value for Form VII) of 266 mg/mL.
The compound `CC1=CC[C@H](C(=O)N(c2cc(C#CC(C)(C)C)sc2C(=O)O)C2CCC(O)(CO[C@H]3CCOC3)CC2)CC1.CCO` (relative stereo) [Form IX, 5-(3,3-dimethylbutyn-1-yl)-3-[(cis-4-hydroxy-4-{[(3S)-tetrahydrofuran-3-yloxy]methyl}cyclohexyl){[(1R)-4-methylcyclohex-3-en-1-yl]carbonyl}amino]thiophene-2-carboxylic acid ethanol solvate] yielded a solubility in data set [4] (EtOH, value for Form IX) of 283 mg/mL.
Consider `CC1=CC[C@H](C(=O)N(c2cc(C#CC(C)(C)C)sc2C(=O)O)[C@H]2CC[C@](O)(CO[C@H]3CCOC3)CC2)CC1` [Compound I, 5-(3,3-dimethylbutyn-1-yl)-3-[(cis-4-hydroxy-4-{[(3S)-tetrahydrofuran-3-yloxy]methyl}cyclohexyl){[(1R)-4-methylcyclohex-3-en-1-yl]carbonyl}amino]thiophene-2-carboxylic acid], for which the 2-Week solids entry in data set [5] (setting [6]) is recorded as “solution”; in data set [5] (setting [7]), “solution”; in data set [5] (EtOAc, init. conc. 49.4 mg/mL) it was “solution”; in data set [5] (EtOH, init. conc. 76 mg/mL), “solution”; in data set [5] (setting [8]) it was “amorphous”; in data set [5] (IPA, init. conc. 95.4 mg/mL), “solution”. Besides, the 2-Week solids result in data set [5] (IPAc, init. conc. 39.6 mg/mL) is on record as “solution”; in data set [5] (MEK, init. conc. 65.6 mg/mL), “solution”; in data set [5] (MIBK, init. conc. 60.2 mg/mL) it was “solution”; in data set [5] (MeCl2, init. conc. 36 mg/mL) it was “solution”; in data set [5] (MeOH, init. conc. 87.4 mg/mL), “solution”; in data set [5] (THF, init. conc. 53.4 mg/mL), “solution”. Also, the 2-Week solids entry in data set [5] (setting [9]) is listed as “solution”; in data set [5] (Water, init. conc. 11 mg/mL), “amorphous”. Also, the 24 h solids entry was “solution” in data set [5] (setting [6]); “solution” in data set [5] (setting [7]); “solution” in data set [5] (EtOAc, init. conc. 49.4 mg/mL); “solution” in data set [5] (EtOH, init. conc. 76 mg/mL); “amorphous” in data set [5] (setting [8]); “solution” in data set [5] (IPA/water, init. conc. 47.7 mg/mL). The 24 h solids result is given as “solution” in data set [5] (IPA, init. conc. 95.4 mg/mL); “solution” in data set [5] (IPAc, init. conc. 39.6 mg/mL); “solution” in data set [5] (MEK, init. conc. 65.6 mg/mL); “solution” in data set [5] (MIBK, init. conc. 60.2 mg/mL); “solution” in data set [5] (MTBE, init. conc. >45 mg/mL); “solution” in data set [5] (MeCl2, init. conc. 36 mg/mL). Also, the 24 h solids result is “solution” in data set [5] (MeOH, init. conc. 87.4 mg/mL); “solution” in data set [5] (THF, init. conc. 53.4 mg/mL); “solution” in data set [5] (setting [9]); “amorphous” in data set [5] (Water, init. conc. 11 mg/mL). The solubility in data set [5] (aqueous with cosolvent or surfactant or cyclodextrin, ACN/water (50:50), solids I) was 0.23 mg/mL (≈ 0.423 mM); in data set [5] (aqueous with cosolvent or surfactant or cyclodextrin, EtOH/water, solids III then IV), 14.5 mg/mL (≈ 26.7 mM); in data set [5] (aqueous with cosolvent or surfactant or cyclodextrin, IPA/water, 2-week solids V), 1.78 mg/mL (≈ 3.27 mM); in data set [5] (organic solvent or mixture, 2 Me-THF, remained solution), over 77.4 mg/mL; in data set [5] (organic solvent or mixture, ACN, solids II) it was 13 mg/mL (≈ 23.9 mM); in data set [5] (organic solvent or mixture, Acetone, remained solution), over 79.6 mg/mL. Also, the solubility is over 49.4 mg/mL in data set [5] (organic solvent or mixture, EtOAc, remained solution); over 76 mg/mL in data set [5] (organic solvent or mixture, EtOH, remained solution); over 95.4 mg/mL in data set [5] (organic solvent or mixture, IPA, remained solution); over 39.6 mg/mL in data set [5] (organic solvent or mixture, IPAc, remained solution); over 65.6 mg/mL in data set [5] (organic solvent or mixture, MEK, remained solution); over 60.2 mg/mL in data set [5] (organic solvent or mixture, MIBK, remained solution). The solubility in data set [5] (organic solvent or mixture, MTBE, 2-week solids V) was 316 mg/mL (≈ 581 mM); in data set [5] (organic solvent or mixture, MeCl2, remained solution) it was over 36 mg/mL; in data set [5] (organic solvent or mixture, MeOH, remained solution), over 87.4 mg/mL; in data set [5] (organic solvent or mixture, THF, remained solution), over 53.4 mg/mL; in data set [5] (organic solvent or mixture, Toluene, remained solution), over 16.2 mg/mL.
In the case of “5-(3,3-dimethylbutyn-1-yl)-3-[(cis-4-hydroxy-4-{[(3S)-tetrahydrofuran-3-yloxy]methyl}cyclohexyl){[(1R)-4-methylcyclohex-3-en-1-yl]carbonyl}amino]thiophene-2-carboxylic acid solvate [Form V]”, the “Final Form after desolvation” value in data set [1] is on record as “Amorphous”.
Take “5-(3,3-dimethylbutyn-1-yl)-3-[(cis-4-hydroxy-4-{[(3S)-tetrahydrofuran-3-yloxy]methyl}cyclohexyl){[(1R)-4-methylcyclohex-3-en-1-yl]carbonyl}amino]thiophene-2-carboxylic acid hydrate and/or solvate [Form III]”: in data set [5] (EtOH/water slurry, after 2 weeks of stirring), the “Form conversion in slurry” value was “converted to Form IV”. In addition, the “Form conversion upon drying” value in data set [5] (solids from EtOH/water, dried) is recorded as “converted to Form IV”.

These data come from patent US9409891B2, “Solid forms of an antiviral compound” (Gilead Sciences, Inc., priority 2012, dated 2016).
